Experimental data taken from patent US12077503B2, “Substituted cyclic amides and their use as herbicides” (FMC CORPORATION, priority 2015, dated 2024).

Key:
Type in all cases: in vivo
[1] = test system: barnyardgrass (Echinochloa crus-galli); test: Test B flooded paddy test; details: Echinochloa crus-galli, 250 g ai/ha, Flood; 0 to 100 scale where 0 is no effect and 100 is complete control; read-out: Barnyardgrass plant response rating
Procedure, shortened: (§1)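 Visual ratings (0 none to 100 complete control) are relative to untreated plants, taken 13–15 d after treatment in a greenhouse. Test material went straight into floodwater standing 3 cm above the soil, kept constant, on plants at the 2-leaf stage.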

[2] = test system: ducksalad (Heteranthera limosa); test: Test B flooded paddy test; details: Heteranthera limosa, 250 g ai/ha, Flood; 0 to 100 scale where 0 is no effect and 100 is complete control; read-out: Ducksalad plant response rating
Procedure, shortened: as §1

[3] = test system: sedge, umbrella (small-flower umbrella sedge, Cyperus difformis); test: Test B flooded paddy test; details: Cyperus difformis, 250 g ai/ha, Flood; 0 to 100 scale where 0 is no effect and 100 is complete control; read-out: Sedge, Umbrella plant response rating
Procedure, shortened: as §1

rice (Oryra sativa) = test: Test B flooded paddy test; details: Oryza sativa, 250 g ai/ha, Flood; 0 to 100 scale where 0 is no effect and 100 is complete control; read-out: Rice plant response rating
Procedure, shortened: as §1

[4] = test system: barnyardgrass (Echinochloa crus-galli); test: Test A preemergence; details: Echinochloa crus-galli, pre-emergence, 240 h, 0 to 100 scale where 0 is no effect and 100 is complete control, read-out: Barnyardgrass plant response rating
Procedure, shortened: (§2)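 Ratings of 0 (no effect) to 100 (complete control) come from visual comparison with untreated controls roughly 10 d after treatment. Test chemicals, formulated in a non-phytotoxic solvent mixture with surfactant, were applied either as a preemergence directed soil spray on seeded soil or postemergence to one- to two-leaf plants 2 to 10 cm tall.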

Kochia (Kochia scoparia) [5] = test: Test A preemergence; details: Bassia scoparia, pre-emergence, 240 h, 0 to 100 scale where 0 is no effect and 100 is complete control, read-out: Kochia plant response rating
Procedure, shortened: as §2

[6] = test system: giant foxtail (Setaria faberii); test: Test A preemergence; details: Setaria faberi, pre-emergence, 240 h, 0 to 100 scale where 0 is no effect and 100 is complete control, read-out: Foxtail, Giant plant response rating
Procedure, shortened: as §2

[7] = test system: ragweed (common ragweed, Ambrosia elatior); test: Test A preemergence; details: Ambrosia artemisiifolia, pre-emergence, 240 h, 0 to 100 scale where 0 is no effect and 100 is complete control, read-out: Ragweed plant response rating
Procedure, shortened: as §2

[8] = test system: pigweed (Amaranthus retroflexus); test: Test A preemergence; details: Amaranthus retroflexus, pre-emergence, 240 h, 0 to 100 scale where 0 is no effect and 100 is complete control, read-out: Pigweed plant response rating
[9] = test system: ryegrass, Italian (Italian ryegrass, Lolium multiflorum); test: Test A preemergence; details: Lolium multiflorum, pre-emergence, 240 h, 0 to 100 scale where 0 is no effect and 100 is complete control, read-out: Ryegrass, Italian plant response rating
Procedure, shortened: as §2

[10] = test system: barnyardgrass (Echinochloa crus-galli); test: Test A postemergence; details: Echinochloa crus-galli, post-emergence, 240 h
Procedure, shortened: as §2

Kochia (Kochia scoparia) [11] = test: Test A postemergence; details: Bassia scoparia, post-emergence, 240 h
Procedure, shortened: as §2

[12] = test system: giant foxtail (Setaria faberii); test: Test A postemergence; details: Setaria faberi, post-emergence, 240 h
Procedure, shortened: as §2

[13] = test system: ragweed (common ragweed, Ambrosia elatior); test: Test A postemergence; details: Ambrosia artemisiifolia, post-emergence, 240 h
Procedure, shortened: as §2

[14] = test system: blackgrass (Alopecurus myosuroides); test: Test A postemergence; details: Alopecurus myosuroides, post-emergence, 240 h
Procedure, shortened: as §2

[15] = test system: pigweed (Amaranthus retroflexus); test: Test A postemergence; details: Amaranthus retroflexus, post-emergence, 240 h
Procedure, shortened: as §2

[16] = test system: wheat (Triticum aestivum); test: Test A postemergence; details: Triticum aestivum, post-emergence, 240 h
Procedure, shortened: as §2

corn (Zea mays) = test: Test A postemergence; details: Zea mays, post-emergence, 240 h
Procedure, shortened: as §2

[17] = test system: ryegrass, Italian (Italian ryegrass, Lolium multiflorum); test: Test A postemergence; details: Lolium multiflorum, post-emergence, 240 h
Procedure, shortened: as §2

[18] = 125 g ai/ha, preemergence, approx. 10 d

For `CC(C)Oc1cc([C@H]2CN(C)C(=O)[C@@H]2C(=O)Nc2ccccc2F)ccc1F` [Compound 1074], the pest or weed control at 250 g/ha [1] was 75%, the pest or weed control at 250 g/ha [2] was 100% and the pest or weed control at 250 g/ha [3] was 0%. For the same compound, the pest or weed control at 250 g/ha (rice (Oryra sativa)) was 35%, the pest or weed control at 31 g/ha ([4]; 31 g ai/ha, Preemergence) was 90% and the pest or weed control at 125 g/ha [4, 18] was 100%. For the same compound, the pest or weed control at 31 g/ha (Kochia (Kochia scoparia) [5]; 31 g ai/ha, Preemergence) was 0%, the pest or weed control at 125 g/ha (Kochia (Kochia scoparia) [5]; [18]) was 20% and the pest or weed control at 31 g/ha ([6]; 31 g ai/ha, Preemergence) was 100%. The pest or weed control at 125 g/ha [6, 18] was 100%, the pest or weed control at 31 g/ha ([7]; 31 g ai/ha, Preemergence) was 0% and the pest or weed control at 125 g/ha [7, 18] was 10%. For the same compound, the pest or weed control at 31 g/ha ([8]; 31 g ai/ha, Preemergence) was 0%, the pest or weed control at 125 g/ha [8, 18] was 20% and the pest or weed control at 31 g/ha ([9]; 31 g ai/ha, Preemergence) was 0%. It also gave a pest or weed control at 125 g/ha [9, 18] of 50%, a pest or weed control at 125 g/ha ([10]; 125 g ai/ha, postemergence, visual injury on 0 to 100 scale (0 no effect, 100 complete control), approx. 10 d, read-out: Barnyardgrass plant response rating) of 90% and a pest or weed control at 31 g/ha ([10]; Postemergence, 31 g ai/ha, visual injury after approx. 10 d, 0 to 100 scale, 0 no effect, 100 complete control, read-out: Plant response rating, Barnyardgrass) of 80%. For the same compound, the pest or weed control at 125 g/ha (Kochia (Kochia scoparia) [11]; 125 g ai/ha, postemergence, visual injury on 0 to 100 scale (0 no effect, 100 complete control), approx. 10 d, read-out: Kochia plant response rating) was 20%, the pest or weed control at 31 g/ha (Kochia (Kochia scoparia) [11]; Postemergence, 31 g ai/ha, visual injury after approx. 10 d, 0 to 100 scale, 0 no effect, 100 complete control, read-out: Plant response rating, Kochia) was 0% and the pest or weed control at 125 g/ha ([12]; 125 g ai/ha, postemergence, visual injury on 0 to 100 scale (0 no effect, 100 complete control), approx. 10 d, read-out: Foxtail, Giant plant response rating) was 90%. It also gave a pest or weed control at 31 g/ha ([12]; Postemergence, 31 g ai/ha, visual injury after approx. 10 d, 0 to 100 scale, 0 no effect, 100 complete control, read-out: Plant response rating, Foxtail, Giant) of 70%, a pest or weed control at 125 g/ha ([13]; 125 g ai/ha, postemergence, visual injury on 0 to 100 scale (0 no effect, 100 complete control), approx. 10 d, read-out: Ragweed plant response rating) of 0% and a pest or weed control at 31 g/ha ([13]; Postemergence, 31 g ai/ha, visual injury after approx. 10 d, 0 to 100 scale, 0 no effect, 100 complete control, read-out: Plant response rating, Ragweed) of 0%. It also gave a pest or weed control at 125 g/ha ([14]; 125 g ai/ha, postemergence, visual injury on 0 to 100 scale (0 no effect, 100 complete control), approx. 10 d, read-out: Blackgrass plant response rating) of 50%, a pest or weed control at 31 g/ha ([14]; Postemergence, 31 g ai/ha, visual injury after approx. 10 d, 0 to 100 scale, 0 no effect, 100 complete control, read-out: Plant response rating, Blackgrass) of 20% and a pest or weed control at 125 g/ha ([15]; 125 g ai/ha, postemergence, visual injury on 0 to 100 scale (0 no effect, 100 complete control), approx. 10 d, read-out: Pigweed plant response rating) of 0%. For the same compound, the pest or weed control at 31 g/ha ([15]; Postemergence, 31 g ai/ha, visual injury after approx. 10 d, 0 to 100 scale, 0 no effect, 100 complete control, read-out: Plant response rating, Pigweed) was 0%, the plant injury at 125 g/ha ([16]; 125 g ai/ha, postemergence, visual injury on 0 to 100 scale (0 no effect, 100 complete control), approx. 10 d, read-out: Wheat plant response rating) was 40% and the plant injury at 31 g/ha ([16]; Postemergence, 31 g ai/ha, visual injury after approx. 10 d, 0 to 100 scale, 0 no effect, 100 complete control, read-out: Plant response rating, Wheat) was 0%. For the same compound, the plant injury at 125 g/ha (corn (Zea mays); 125 g ai/ha, postemergence, visual injury on 0 to 100 scale (0 no effect, 100 complete control), approx. 10 d, read-out: Corn plant response rating) was 20%, the Corn plant response rating (crop injury, 0 = no effect, 100 = complete kill) at 31 g/ha (corn (Zea mays); Postemergence, 31 g ai/ha, visual injury after approx. 10 d, 0 to 100 scale, 0 no effect, 100 complete control) was 0% and the pest or weed control at 125 g/ha ([17]; 125 g ai/ha, postemergence, visual injury on 0 to 100 scale (0 no effect, 100 complete control), approx. 10 d, read-out: Ryegrass, Italian plant response rating) was 30%. For the same compound, the pest or weed control at 31 g/ha ([17]; Postemergence, 31 g ai/ha, visual injury after approx. 10 d, 0 to 100 scale, 0 no effect, 100 complete control, read-out: Plant response rating, Ryegrass, Italian) was 20%.
